Measurements: patent US11597739B2, “Enhancing CD8+ T cells for adoptive T cell therapy by inhibiting PTPN1 (PTP1B) and PTPN2 (TC-PTP)” (The Royal Institution for the Advancement of …, priority 2017, dated 2023)
pIC50: −log10 of the molar value.

Target: TC-PTP (Homo sapiens (Human), UniProt P17706)
Test: Enzyme assay for TC-PTP
Format: biochemical
Conditions: inhibition of TC-PTP enzymatic activity
Experimental: 1) Enzyme Assay for TC-PTP
The assay was carried out at room temperature in 96 well plates. The reaction mixture in 170 μl contained 50 mM Bis-Tris (pH=6.3), 2 mM EDTA, 5 mM N,N′-dimethyl-N,N′bis(mercaptoacetyl)hydrazine (DMH) and 10 μM fluorescein diphosphare (FDP) or 6,8-difluoro-4-methylumbelliferyl phosphate (DiFMUP). 10 μl of 10 concentrations (serial dilution) of the test compound (inhibitor) dissolved in DMSO or DMSO alone for control was added to each well and the plate was mixed for 2 min. The reaction was initiated by adding 20 μl of diluted TC-PTP (50 nM for FDP, 0.5 nM for DiFMUP in 50 mM Bis/Tris (pH=6.3), 2 mM EDTA, 5 mM DMH, 20% glycerol and 0.01% Triton X-100. The phosphatase activity was followed by monitoring the appearance of the fluorescent product fluorescein monophosphate (FMP) or 6,8-difluoro-7-hydroxyl-4-coumarin (DiFMU) continuously for 15-30 min, using the Spectromax Gemini fluorescent plate reader ([…]) with excitation of 440 nm and emission at 530 nm (cutoff filter at 525 nm) for FDP and excitation at 360 nm and emission at 450 nm (cutoff filter at 435 nm) for DiFMUP. All the assays were done at least in duplicate. The initial rate of FMP or DiFMU formation is plotted against the concentration of inhibitor and the data was fitted to 4-parameter equation and the inflection point of the fit is the IC50.

Sequence of TC-PTP (P17706 whole entry, species assumed): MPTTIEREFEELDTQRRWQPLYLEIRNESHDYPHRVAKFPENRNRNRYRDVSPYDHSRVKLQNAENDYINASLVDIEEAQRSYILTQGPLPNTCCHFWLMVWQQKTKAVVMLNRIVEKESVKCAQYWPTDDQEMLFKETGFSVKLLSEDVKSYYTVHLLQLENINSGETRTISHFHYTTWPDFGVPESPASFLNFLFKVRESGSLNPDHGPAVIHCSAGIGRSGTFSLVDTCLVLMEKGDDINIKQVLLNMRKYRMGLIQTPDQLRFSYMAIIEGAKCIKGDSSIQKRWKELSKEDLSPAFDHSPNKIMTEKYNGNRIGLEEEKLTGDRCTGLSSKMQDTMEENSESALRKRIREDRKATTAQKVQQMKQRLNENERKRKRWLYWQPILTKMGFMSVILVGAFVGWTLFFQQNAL

## [(3-BROMO-7-CYANO-2-NAPHTHYL)(DIFLUORO)METHYL]PHOSPHONATE [Ex. 10]
  pIC50: 6.31
